# Results published in US20100330148A1, “MEHODS AND COMPOSITIONS FOR INHIBITING IMPDH-1 ISOFORM 1” (The Johns Hopkins University, priority 2006, published 2010).
# pIC50: −log10 of the molar value. Where “and” joins values, the source holds several entries; their conditions need not be identical. Identical values can stand only once.
# Experiments:
# [1] = small cohorts of cancer patients (<35), diethanolamine salt; cited from earlier work
# RENCA cells = assay: Murine renal cell carcinoma (RENCA) tumor model; assay type: in vivo, mouse; details: mice
# Method: Renal cell tumor model. Female BALB/C5-6 week old, 25-30 g mice were purchased from NCI. Logarithmically growing RENCA cells (5×10^5) in 50 μL 50% PBS, 50% Matrigel were injected into the renal subcapsule through an incision in the left flank (Drevs, J., Hofmann, I., Hugenschmidt, H., Wittig, C., Madjar, H., Muller, M., Wood, J., Martiny-Baron, G., Unger, C. & Marme, D. (2000) Cancer Res. 60, 4819-4824.). The mice were sacrificed 3.5 weeks after surgery and the primary tumors were dissected and fixed for immunohistochemistry. For CD31 analysis eight fields with the highest level of angiogenesis were selected per tumor for quantification using ImagePro Plus software (Media Cybernetics), and represented as mean percentage area occupied by CD31 positive blood vessels.
# Angiogenesis has been implicated in tumor growth among a number of other diseases. Although MPA inhibits fast-growing tumor cell lines in culture and in mouse xenograph experiments (Tressler, R. J., Garvin, L. J. & Slate, D. L. (1994) Int. J. Cancer 57, 568-573, Carter, S. B., Franklin, T. J., Jones, D. F., Leonard, B. J., Mills, S. D., Turner, R. W. & Turner, W. B. (1969) Nature 223, 848-850), it is unclear whether MPA also affects tumor-associated angiogenesis. We determined the efficacy of MPA in inhibiting tumor-associated angiogenesis in a murine renal cell carcinoma (RENCA) model (Salup, R. R. & Wiltrout, R. H. (1986) Cancer Res. 46, 3358-3363). MPA inhibited the growth of the primary tumor in a dose-dependent fashion, causing a 34% and 27% decrease in volume and weight, respectively, at 60 mg/kg/day and a 64% decrease in both volume and weight at 120 mg/kg/day (p<0.001) (FIG. 4A). The decrease in tumor growth caused by MPA at 120 mg/kg/day was accompanied by a 48% decrease in the area of CD31 positive staining blood vessels per 200× field (p<0.001).
# Jurkat T cells = assay: Jurkat T-cell proliferation, [3H]-thymidine incorporation; assay type: cell-based
# Method: (§1) Library construction. 32,000 FDA drug approvals obtained by Freedom of Information Act requests were condensed to 3,400 unique drug formulations. Drugs were purchased from Sigma, Spectrum Chemicals, MP Biomedicals, The Johns Hopkins Hospital pharmacy, Biomol, and Tocris. 10 mM stock solutions were made using DMSO, water, or ethanol as solvents. Drugs were arrayed in 96-well plates and screened at a final concentration of 10 μM. Cells were incubated with drug for 36 h and proliferation was measured by pulsing with 1 μCi [^3H]-thymidine for 8 h followed by absorption onto glass filters and scintillation counting.
# (§2) Statistical analysis. IC50 measurements were carried out in triplicate, and analyzed using four parameter logarithmic analysis. Values are presented +/− the standard error of the mean. P-values were calculated using the Student's T-test. IC50 measurements are carried out using standard assays, and include assays described in Gilbert H J, Lowe C R, Drabble W T. Biochem J. 1979, 183:481-94; and Xiang, B., Taylor, J. C., and Markham, G. D. J. Biol. Chem., 271, 1435 (1996); the contents of which are incorporated herein by reference.
# MPA is an immunosuppressive drug widely used to prevent rejection of transplanted organs (Lipsky, J. J: (1996) Lancet 348, 1357-1359.). The mechanism of action in the immune system is well established—MPA inhibits de novo biosynthesis of purines in T and B lymphocytes (Allison, A. C. & Eugui, E. M. (2000) Immunopharmacology 47, 85-118.). […] Thus, a comparison of HUVEC to Jurkat T cells for sensitivity to MPA in the presence and absence of guanine was carried out. […] Addition of guanine at or above 20 μM rendered Jurkat T cells resistant to MPA. Similar to Jurkat T cells, inhibition of HUVEC proliferation is also reversed by guanine in a dose-dependent manner (FIG. 1B). Unlike Jurkat T cells, however, HUVECs are less sensitive to guanine, the cause of which remains unknown. Similar reversal of MPA inhibition is also seen in HUVEC and Jurkat T-cells with the addition of exogenous guanosine and deoxyguanosine (data not shown).
# [2] = test system: human umbilical vein endothelial cells (HUVEC); assay: HUVEC proliferation, [3H]-thymidine incorporation; assay type: cell-based
# Method: as §1, §2
# A library of 1,850 FDA-approved drugs and 600 drugs that entered the clinic via approval in a foreign country or phase II clinical trials was created. […]
# HUVEC = assay: Cell cycle analysis of HUVEC; assay type: cell-based, human
# Source text: It has been shown that MPA causes cell cycle arrest in activated T and B lymphocytes at G1 (Laliberte, J., Yee, A., Xiong, Y. & Mitchell, B. S. (1998) Blood 91, 2896-2904.). Therefore, the effect of MPA on endothelial cell cycle progression was examined.
# [3] = test system: VEGF and bFGF stimulated angiogenesis (new blood vessel formation); assay: Matrigel plug angiogenesis assay in mice; assay type: in vivo, mouse; details: 60 mg/kg/day s.c., 10 days after plug implantation, vs vehicle, p<0.002
# Method: In vivo angiogenesis. Female C57BL/6NCr 5-week old, 25-30 g mice were purchased from NCI and treated in accordance with Johns Hopkins ACUC procedures. In all animal experiments the MPA prodrug mycophenolate mofetil i.v. formulation (Roche) was used. Mice were pretreated with drug for three days and then implanted with 0.5 mL of Matrigel (BD Biosciences) containing 100 ng/mL VEGF and 150 ng/mL bFGF. Drug treatment was continued daily for 10 days, mice were sacrificed, and plugs were harvested, fixed in neutral buffered formalin, and processed for histology using MAS-trichrome staining. The entire Matrigel plug was photographed at 100× and erythrocyte-filled blood vessels were counted per field.
# Matrigel plugs' containing VEGF and bFGF were subcutaneously implanted into mice. The control group was treated with saline vehicle and the MPA group was treated with 60 or 120 mg/kg/day of drug. […] To quantify these differences we counted erythrocyte-filled blood vessels per 100× field (FIG. 3E) (Fahmy, R. G., Dass, C. R., Sun, L. Q., Chesterman, C. N. & Khachigian, L. M. (2003) Nat. Med. 9, 1026-1032), and observed a 69% decrease in new blood vessel formation in mice treated with MPA in comparison with vehicle control (p<0.002). Thus, MPA is capable of inhibiting angiogenesis at a therapeutically achievable dose in vivo.
# [4] = human renal transplant patients, chronic oral treatment; cited from earlier work
Structure (SMILES),toxicity in patients [1],decrease in primary tumor volume (RENCA cells; 60 mg/kg/day),decrease in primary tumor weight (RENCA cells; 60 mg/kg/day),"decrease in primary tumor volume (RENCA cells; 120 mg/kg/day, p<0.001)","decrease in primary tumor weight (RENCA cells; 120 mg/kg/day, p<0.001)","decrease in area of CD31 positive staining blood vessels per 200× field (RENCA cells; 120 mg/kg/day, p<0.001, 120 mg/kg/day)","pIC50 (Jurkat T cells; Homo sapiens, Jurkat, [3H]-thymidine incorporation, +/- standard error of the mean)",MPA inhibition of Jurkat T-cell proliferation with exogenous guanine (Jurkat T cells; guanine 10 μM),MPA inhibition of Jurkat T-cell proliferation with exogenous guanine (Jurkat T cells; guanine 20 μM and 50 μM),"pIC50 ([2]; Homo sapiens, HUVEC, [3H]-thymidine incorporation, +/- standard error of the mean)",MPA inhibition of HUVEC proliferation with exogenous guanine ([2]; guanine 10 μM and 20 μM),cell cycle effect (HUVEC; 1 μM MPA),population of cells in S phase (HUVEC; 1 μM MPA (control 12%)),population of cells in G2/M phase (HUVEC; 1 μM MPA (control 17.8%)),population of cells in G1 phase (HUVEC; 1 μM MPA (control 71%)),cell cycle effect of MPA after addition of guanosine (HUVEC; 1 μM MPA + 50 μM guanosine),decrease in new blood vessel formation (erythrocyte-filled blood vessels per 100× field) [3],half life [4],peak plasma level [4]
COc1c(C)c2c(c(O)c1CC=C(C)CCC(=O)O)C(=O)OC2.OCCNCCO [diethanolamine salt of MPA],considerable dose-limiting gastrointestinal toxicity,,,,,,,,,,,,,,,,,,
"COc1c(C)c2c(c(O)c1C/C=C(\C)CCC(=O)O)C(=O)OC2 [MPA, mycophenolic acid]",,34%,27%,64%,64%,49% and 48%,6.89,unaffected,completely reversed,7.00,partially reversed,G1/S cell cycle arrest,6.5%,12.4%,81%,completely reversed,69%,18 h,75 µM
